# Experimental data taken from US20230233533A1, “COMPOSITIONS, METHODS OF TREATING AND PREVENTING FUNGAL INFECTIONS, AND METHODS OF INHIBITING PRP8 INTEIN EXPRESSION” (Health Research, Inc., priority 2020, published 2023).
# pIC50: −log10 of the molar value. Values joined by “and” are separate entries in the source; they are usually repeats but may differ in a detail not shown here. Equal values may be shown once. Read-outs that look alike come from different tables or passages of the source.
# Key:
# in vitro = type: cell-based, human; settings: human, CC50 A549
# Method in brief: (§1)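 A549 cells (5×10^3 per well) were exposed to compounds at 37 °C for 48 h, and viability was read by MTT assay; N=3.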
# papain = target: T1, papain (Carica papaya, UniProt P00784); experiment: Papain protease inhibition (Abz FRET substrate); type: biochemical; settings: compound at 400 μM
# T1 construct: purchased Sigma-Aldrich
# T1 sequence (P00784 134-345): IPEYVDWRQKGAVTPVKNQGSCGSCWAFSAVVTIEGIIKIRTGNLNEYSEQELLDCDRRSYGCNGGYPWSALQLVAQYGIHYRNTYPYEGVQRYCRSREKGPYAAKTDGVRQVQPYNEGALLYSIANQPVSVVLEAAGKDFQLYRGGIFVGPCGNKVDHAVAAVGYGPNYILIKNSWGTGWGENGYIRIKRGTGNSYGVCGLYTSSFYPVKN
# Experimental: (§2) Trypsin and papain protease inhibition—An Abz FRET substrate (Abz-RRRRSAG-nTyr) developed previously (Li et al., “Existing Drugs as Broad-Spectrum and Potent Inhibitors for Zika Virus by Targeting NS2B-NS3 Interaction,” Cell Research 27(8):1046-1064 (2017), which is hereby incorporated by reference in its entirety) was used as the substrate for inhibition of trypsin and papain proteases. In black and clear-bottom 96-well plates, 1 μg trypsin (Sigma-Aldrich) was incubated with DMF or compounds at 400 μM at 25° C. for 30 min in a 70 μl reaction buffer containing 20 mM Tris, pH 8.0, 100 mM NaCl, 5% Glycerol, and 0.05% CHAPS. For papain, 1 μg Papain (Sigma-Aldrich) was incubated with compounds at 400 μM at 25° C. for 30 min in a 70 μl reaction buffer composed of 1.1 mM EDTA, 0.067 mM β-mercaptoethanol, 5.5 mM cysteine. […]
# C. neoformans H99 strain = experiment: Fungal susceptibility test, broth microdilution MIC; type: cell-based, Cryptococcus neoformans
# Method in brief: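 Compound MICs were determined by broth microdilution using a compound concentration series.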
# trypsin = experiment: Trypsin protease inhibition (Abz FRET substrate); type: biochemical; settings: compound at 400 μM
# Experimental: as §2
# Prp8 intein [1] = target: T2, Prp8 intein (Cryptococcus gattii, UniProt E6R027); experiment: Split GFP-Prp8i intein splicing assay; type: biochemical; settings: for pIC50: split GFP-Prp8 intein splicing
# Experimental: Cloning, expression and purfication—The split GFP-Prp8i was constructed using a mega-PCR mutagenesis approach. […] After digestion with Dpn I restriction enzyme, the PCR product was transformed into DH5α Escherichia coli. Clones were verified by plasmid DNA sequencing. The expression, refolding and purification of the GFP-Prp8i fusion protein were carried out as described previously.
# […] Then 100 μl 2×TCEP was added to a final concentration of 20 μM. The reactions were incubated at 25° C. overnight. […] Two readings were taken, one prior to addition of TCEP (I0) and one after incubation overnight with TCEP (If). Fluorescence/luminescence differences (ΔFluorescence or ΔLuminescence) were defined as If−I0 for each well. […] DMF control served as 100% splicing activity.
# Split GFP-Prp8 and CJGFP-Prp8 intein splicing assays—Using black and clear bottom 96-well plates, the DPNB-treated, -refolded and -concentrated GFP-Prp8 or CfGFP-Prp8 fusion protein (0.5 μM) was incubated with compounds or Dimethylsulfoxide (DMSO) solvent control for 30 min at 25° C. in a 100 μl intein splicing buffer (20 mM Bis-tris propane, 0.5 M NaCl, 0.5 M arginine, 1 mM EDTA, and 0.05% CHAPS). Then 100 μl 2×TCEP was added to a final concentration of 20 μM. The reactions were incubated at 25° C. overnight. […] Two readings were taken, one prior to addition of TCEP (I0) and one after incubation overnight with TCEP (If). Fluorescence/luminescence differences (ΔFluorescence or ΔLuminescence) were defined as If−I0 for each well. […] DMSO control served as 100% splicing activity.
# Candida albicans = experiment: Fungal susceptibility test, broth microdilution MIC; type: cell-based; settings: microdilution assay
# Experimental: Fungal susceptibility test—The fungal susceptibility test was carried out with a compound concentration series as described. Li et al., “Cisplatin Protects Mice From Challenge of Cryptococcus neoformans by Targeting the Prp8 Intein,” Emerging Microbes & Infections 8(1):895-908 (2019), which is hereby incorporated by reference in its entirety. The broth microdilution method was used to determine the compound MIC values against C. neoformans. In brief, serial 2-fold dilutions of the 6G-318SS (20 to 0.03 μg/ml) were made in 100 μl RPMI-1640 medium with MOPS in 96-well U-bottom plates. The C. neoformans H99 strain (100 μl of 0.5×10^5/ml) in log phase was added to each well. […] The MIC break-point was defined as no visible fungal growth by naked eye or by determining the 90% growth inhibition using absorbance at 630 nm, compared with no inhibitor control in a 96-well plate.
# C. albicans, a fungus without the Prp8 intein, was also used as a control.
# C. neoformans = experiment: Sensititre YeastOne Y09 AST drug combination assay; type: cell-based, Cryptococcus neoformans; settings: 6G-318S at 0.16 ug/ml, C. neoformans H99
# Experimental: Sensititre YeastOne Y09 AST assay—Fungal susceptibility to a combination of compounds was carried out using the Sensititre YeastOne Y09 AST assay kit (Thermofisher), according to the manufacturer's manual. Briefly, fungal C. neoformans cells in exponential growth phase were diluted to a final OD530 of 0.1. Then 20 μl diluted cells were further diluted into 10 ml YPD as a stock. […] The stock C. neoformans (100 μl, ˜200 cells) were dispensed into the compound-ready 96-well plate. The fungal cells (treated or with DMF) were incubated at 30° C. for 48 h. The cell cultures were visualized by naked eye. The MIC break points were determined according to manufacturer's instructions.
# C. neoformans H99 = experiment: Checkerboard assay; type: cell-based, Cryptococcus neoformans; settings: for MIC: Cryptococcus neoformans, H99, 48 h
# Experimental: Compounds were initially dissolved in DMSO and diluted in RPMI-1640-MOPS media four times the targeted final concentration and 50 μl was added per well. The second compound was similarly diluted and 50 μl was added per well, to a final volume of 100 μl/well. C. neoformans […] inoculum (100 μl) prepared from freshly grown cultures and diluted to an absorbance of 0.1 at 530 nm in water and further diluted (1:500) in RPMI-1640-MOPS was added to each well. To determine the fungicidal concentration of a compound, the wells with no visible growth were serially diluted, plated on SDA, and incubated at 30° C. for 48-72 h for the recovery of colony-forming units. Additionally, the cell density of treated and untreated wells was also estimated by reading absorbance at 630 nm using an EL808 reader (Bio-Tek). Percentage of inhibition compared to that of the no-drug-control well was calculated. […] Fractional inhibitory concentration (FIC) index value is calculated as the […]. The FIC index value is then used to categorize the interaction of the two compounds tested. […] Doern, C., “When Does 2 plus 2 Equal 5?A Review of Antimicrobial Synergy Testing,” Journal of Clinical Microbiology 52(12):4124-4128 (2014), which is hereby incorporated by reference in its entirety.
# Prp8 intein [2] = target: T2, Prp8 intein; settings: value from Li et al. 2019; read-out: IC50 determined using the RLuc-Prp8 assay; cited from earlier work
# [3] = tested on: human lung carcinoma cell line A549; experiment: in vitro; type: cell-based; settings: 48 h, MTT
# Method in brief: as §1
# Prp8 intein [4] = target: T2, Prp8 intein; experiment: Split Renilla luciferase RLuc-Prp8 intein splicing assay; type: biochemical; settings: split Renilla luciferase RLuc-Prp8 intein splicing
# Experimental: Split luciferase Prp8 intein splicing assay—The split RLuc-Prp8 fusion protein was carried out and monitored using a Veritas luminometer, as described previously.
# Split luciferase RLuc-Prp8 and NnLuc-Prp8 intein splicing assays—The split RLuc-Prp8 intein splicing assay was carried out and monitored using a Veritas luminometer, as described previously. […] Microbes. Infect. […] For NnLuc-Prp8 intein splicing assay, the NnLuc-prp8 is diluted in assay buffer (50 mM Tris, 0.1% BSA, 1 mM EDTA, pH 7.4) and 50 ul is added to each well in 96 well black plates. Test molecules or the solvent was added and incubated for 30 to 60 min. A splicing inducer TCEP (50 ul, 100 μM) is added and incubated for 24 h. Luciferase substrate (Furimazine, 25 ul 1:10,000 diluted) is added and luminescence is read using a luminescence reader. IC50 is calculated using Graphpad prism.
# T2 sequence (E6R027 entry or part of it): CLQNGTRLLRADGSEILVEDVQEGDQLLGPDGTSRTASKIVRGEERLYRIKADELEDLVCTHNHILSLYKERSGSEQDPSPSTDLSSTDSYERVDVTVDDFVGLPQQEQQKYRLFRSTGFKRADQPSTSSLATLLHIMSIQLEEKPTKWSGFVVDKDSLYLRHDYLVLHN
compound,measurement,setting,value
"O=C(Nc1ccc(F)cc1F)c1nnsc1S(=O)(=O)c1ccc(Cl)cc1 [6G-319S, 5-((4-Chlorophenyl)sulfonyl)-N-(2,4-difluorophenyl)-1,2,3-thiadiazole-4-carboxamide]",CC50 at 48 h,in vitro,44.9 µg/mL and ~108 µM
same,inhibition of papain protease activity,papain,"neither 6G-318S, 6G-319S, nor cisplatin significantly inhibited"
same,MIC,"C. neoformans H99 strain; Cryptococcus neoformans, H99STRAIN, H99 strain, 48 h, 30° C., read-out: MIC C. neoformans",1.3 µg/mL
same,inhibition of trypsin protease activity,trypsin,"neither 6G-318S, 6G-319S, nor cisplatin significantly inhibited"
same,inhibition at 20 µM,"Prp8 intein [1]; compound at 20 μM, read-out: inhibition of the GFP-Prp8i signal / Prp8 intein splicing",> 50%
same,pIC50,Prp8 intein [1],5.01
same,MIC,Candida albicans,20.8 µg/mL
"C[C@@H](c1ncncc1F)[C@](O)(Cn1cncn1)c1ccc(F)cc1F [Vor, Voriconazole, reference compound]",reduction of MIC of known antifungal on addition of 6G-318S,C. neoformans,2 fold
same,MIC,C. neoformans H99,0.044 µg/mL
same,MIC-comb,"C. neoformans H99; combination 6G-318S + Vor, well G3",0.087 µg/mL
"N.N.[Cl][Pt][Cl] [cisplatin, reference compound]",pIC50,Prp8 intein [2],5.60
same,inhibition of papain protease activity,papain,"neither 6G-318S, 6G-319S, nor cisplatin significantly inhibited"
same,inhibition of trypsin protease activity,trypsin,"neither 6G-318S, 6G-319S, nor cisplatin significantly inhibited"
same,fluorescence increase of the GFP-Prp8i fusion,"Prp8 intein [1]; cisplatin 40 μM, GFP-Prp8i 200 nM",significantly reduced
same,pIC50,Prp8 intein [1],5.17
"5-((4-Chlorophenyl)thio)-N-(6-fluoropyridin-3-yl)-1,2,3-thiadiazole-4-carboxamide [JMX0580]",CC50,[3],33.1 µM
same,MIC,"C. neoformans H99 strain; C. neoformans H99, microbroth dilution, read-out: MIC H99",>100 µM
same,pIC50,Prp8 intein [4],5.19
same,pIC50,Prp8 intein [1],4.45
"5-((4-Chlorophenyl)sulfonyl)-N-(6-fluoropyridin-3-yl)-1,2,3-thiadiazole-4-carboxamide [JMX0581]",CC50,[3],92.4 µM
same,pIC50,Prp8 intein [4],4.95
same,pIC50,Prp8 intein [1],5.21
"C[C@@H]1[C@H](O)[C@@H](C)/C=C/C=C/C=C/C=C/C=C/C=C/C=C/[C@H](O[C@@H]2O[C@H](C)[C@@H](O)[C@H](N)[C@@H]2O)C[C@@H]2O[C@](O)(C[C@@H](O)C[C@@H](O)[C@H](O)CC[C@@H](O)C[C@@H](O)CC(=O)O[C@H]1C)C[C@H](O)[C@H]2C(=O)O [AmB, amphotericin B, reference compound]",reduction of MIC of known antifungal on addition of 6G-318S,C. neoformans,more than 4 fold
same,MIC-alone,"C. neoformans H99; C. neoformans H99, 48 h, 90% inhibition",0.578 µg/mL
same,MIC-comb,"C. neoformans H99; combination 6G-318S + AmB, well F6",0.144 µg/mL
"CCC(C)n1ncn(-c2ccc(N3CCN(c4ccc(OCC5COC(Cn6cncn6)(c6ccc(Cl)cc6Cl)O5)cc4)CC3)cc2)c1=O (stereo not shown) [IZ, itraconazole, reference compound]",reduction of MIC of known antifungal on addition of 6G-318S,C. neoformans,2 fold
same,MIC,C. neoformans H99,0.176 µg/mL
same,MIC-comb,"C. neoformans H99; combination 6G-318S + IZ, well D6",0.088 µg/mL
"Nc1nc(=O)[nH]cc1F [5-FC, 5-fluorocytosine, reference compound]",reduction of MIC of known antifungal on addition of 6G-318S,C. neoformans,2 fold
same,MIC,C. neoformans H99,8.1 µg/mL
same,MIC-comb,"C. neoformans H99; combination 6G-318S + 5-FC, well D6",2.025 µg/mL
